Results on four compounds are retold here after patent US9828375B2, “4-position substituted pyrazolopyrimidine derivative, and use thereof in drug preparation” (Guangxi Wuzhou Pharmaceuticals (Group) Co., Ltd., priority 2012, dated 2017).

The inhibition is the share of the control response that was lost under treatment. The term IC50 denotes the concentration that inhibits the measured activity by half.

Molecules are shown by their SMILES.

One test has as its target PDGFRα (Homo sapiens, UniProt P16234). The experiment in a line: Kinase inhibition activity test, isotope labeling: PDGFRα. The conditions noted are these: test compound at a concentration of 10 μM; for inhibition at 10 µM: read-out: Activity inhibition rate PDGFRα (h). The test is classed as biochemical. As to the method: (§1) The purpose of this experiment was to test the inhibitory activity of the compound of the invention for in vitro kinase with the isotope labeling method (the γ phosphate group on ATP was labeled). In this experiment, the in vitro activity inhibition of such kinases as FLT3, VEGFR2, FLT1, FLT4, RET, c-RAF, B-RAF, c-KIT, PDGFα, PDGFβ, FGFR2, FGFR1, EphA2, EphB2, SRC, ABL, ALK and Met was tested respectively. Staurosporine was reference molecule (or referred to as positive control). The kinase inhibition activity of the test compound was expressed by half-inhibitory concentration (IC50) or the kinase activity inhibition rate of the test compound at a concentration of 10 μM. The IC50 value could be obtained by calculating the kinase activity inhibition rate of the test compound at different concentrations.
(§2) 20 mM 3-(N-morpholinyl)propanesulfonic acid (MOPS); 1 mM ethylenediaminetetraacetic acid (EDTA), 0.01% Brij 35 (Brij-35), 5% glycerol, 0.1% mercaptoethanol, 1 mg/mL bovine serum albumin (BSA), 10 mM manganous dichloride solution (MnCl2), 0.1 mg/mL glutamic acid/tyrosine (4:1) polypeptide (poly(Glu, Tyr)4:1), 50 μM EAIYAAPFAKKK (substrate of FLT3), 0.33 mg/mL myelin basic protein (substrate of VEGFR2), 250 μM KKKSPGEYVNIEFG (substrate of FLT1(h)), 500 μM GGEEEEYFELVKKKK (substrate of FLT4(h)), 250 μM KKKSPGEYVNIEFG (substrate of RET), 0.66 mg/mL myelin basic protein (substrate of C-RAF), 250 μM GGMEDIYFEFMGGKKK (substrate of c-Kit), 250 μM GGMEDIYFEFMGGKKK (substrate of PDGFα), 250 μM KKKSPGEYVNIEFG (substrate of FGFR1), […] GGEEEEYFELVKKKK (substrate of SRC), 50 μM EAIYAAPFAKKK (substrate of ABL), 250 μM KKKSPGEYVNIEFG (substrate of ALK), 250 μM KKKSPGEYVNIEFG (substrate of Met(h)), 10 mM magnesium acetate and γ-^33 P-ATP solution, stop buffer (3% phosphate buffer), washing buffer (75 mM phosphate solution), methanol, Filtermat A membrane, FLT3, VEGFR2, FLT3, VEGFR2, FLT1, FLT4, RET, c-RAF, B-RAF, c-KIT, PDGFRα, PDGFRβ, FGFR2, FGFR1, EphA2, EphB2, SRC, ABL, ALK, Met and other kinases, and the test compounds.
(§3) Buffers (8 mM MOPS with pH value of 7.0, 0.2 mM EDTA and 10 mM MnCl2), (5-10 mU) kinases to be tested (FLT3, VEGFR2, FLT1, FLT4, RET, c-RAF, B-RAF, c-KIT, PDGFRα, PDGFRβ, FGFR2, FGFR1, EphA2, EphB2, SRC, ABL, ALK and Met), substrates of kinases to be tested (refer to experimental materials), 10 mM magnesium acetate and γ-^33 P-ATP solution, and test compounds at different concentrations were added to a reaction tube orderly. […] Reaction was terminated with 5 μL 3% phosphate buffer finally, and 10 μL reaction solution was titrated to the Filtermat A membrane; solution was washed for 3 times with 75 mM phosphate solution with each time lasting 5 minutes, and then washed once with methanol. Finally, the Filtermat A membrane was dried, and scintillation counting was performed on the membrane, with scintillation count reflecting the phosphorylation degree of the substrates, so that the activity inhibition of kinase could be characterized.

Test [1] concerns human leukemia cell line K562. Put plainly: In vitro tumor cell proliferation inhibition (MTT): K562. It is filed as cell-based. Put shortly:
(§4)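 Readout was MTT colorimetry at 570 nm after DMSO solubilisation, following 72 h compound treatment at graded doses in 0.1% DMSO. Wells held 1-2×10^4 cells/mL plated the day before; triplicates, experiment repeated at least 3 times, results as IC50 or inhibition rate.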

For another test, the target named is VEGFR2 (Homo sapiens, UniProt P35968). Put plainly: Kinase inhibition activity test, isotope labeling (γ-33P-ATP): VEGFR2. It is filed as biochemical. The following applies: test compound at a concentration of 10 μM; for inhibition at 10 µM: read-out: Activity inhibition rate VEGFR2 (h). As to the method:
as §1, §2, §3

A further test addresses c-KIT (Homo sapiens, UniProt P10721). Put plainly: Kinase inhibition activity test, isotope labeling: c-KIT. The conditions noted are these: test compound at a concentration of 10 μM; for inhibition at 10 µM: read-out: Activity inhibition rate c-Kit (h). The test is classed as biochemical. How it is done: as §1, §2, §3
Test [2] concerns human malignant melanoma cell line A875. Put plainly: In vitro tumor cell proliferation inhibition (MTT): A875. The test is classed as cell-based. Summed up:
as §4

Sequence of VEGFR2 (P35968 20-1356): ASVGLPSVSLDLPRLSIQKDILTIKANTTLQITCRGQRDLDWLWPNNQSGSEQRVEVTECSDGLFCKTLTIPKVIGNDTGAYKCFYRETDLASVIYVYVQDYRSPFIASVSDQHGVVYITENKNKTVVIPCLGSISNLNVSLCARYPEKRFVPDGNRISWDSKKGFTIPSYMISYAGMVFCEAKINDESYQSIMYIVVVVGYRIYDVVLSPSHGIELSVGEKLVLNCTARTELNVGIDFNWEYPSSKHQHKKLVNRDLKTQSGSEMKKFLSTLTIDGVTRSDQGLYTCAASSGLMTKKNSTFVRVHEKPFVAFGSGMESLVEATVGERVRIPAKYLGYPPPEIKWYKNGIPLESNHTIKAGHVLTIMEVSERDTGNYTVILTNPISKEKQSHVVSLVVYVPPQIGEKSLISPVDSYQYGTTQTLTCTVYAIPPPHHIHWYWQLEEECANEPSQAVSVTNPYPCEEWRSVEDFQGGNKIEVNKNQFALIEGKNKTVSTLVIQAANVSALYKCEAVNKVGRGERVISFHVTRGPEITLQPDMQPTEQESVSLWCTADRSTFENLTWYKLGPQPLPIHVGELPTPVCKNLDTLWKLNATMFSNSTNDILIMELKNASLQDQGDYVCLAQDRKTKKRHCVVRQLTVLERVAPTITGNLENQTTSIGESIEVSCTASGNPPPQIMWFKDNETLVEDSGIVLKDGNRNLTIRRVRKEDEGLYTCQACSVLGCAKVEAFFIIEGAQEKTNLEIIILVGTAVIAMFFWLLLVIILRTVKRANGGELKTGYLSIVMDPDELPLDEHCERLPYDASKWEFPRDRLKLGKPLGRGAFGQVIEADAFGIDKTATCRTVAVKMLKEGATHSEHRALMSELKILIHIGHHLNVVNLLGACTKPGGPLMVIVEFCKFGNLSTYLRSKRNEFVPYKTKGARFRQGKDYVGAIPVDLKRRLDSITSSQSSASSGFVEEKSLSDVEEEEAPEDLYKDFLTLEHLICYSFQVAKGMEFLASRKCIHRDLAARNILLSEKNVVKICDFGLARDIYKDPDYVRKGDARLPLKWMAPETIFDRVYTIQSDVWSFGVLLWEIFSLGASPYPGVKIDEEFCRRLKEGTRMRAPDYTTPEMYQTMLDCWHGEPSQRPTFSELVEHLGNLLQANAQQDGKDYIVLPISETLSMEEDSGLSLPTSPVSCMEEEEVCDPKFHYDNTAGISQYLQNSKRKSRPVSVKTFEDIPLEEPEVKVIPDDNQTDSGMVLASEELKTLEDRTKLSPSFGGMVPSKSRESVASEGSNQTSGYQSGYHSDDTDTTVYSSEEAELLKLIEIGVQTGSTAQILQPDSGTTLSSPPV
Sequence of c-KIT (P10721 26-976): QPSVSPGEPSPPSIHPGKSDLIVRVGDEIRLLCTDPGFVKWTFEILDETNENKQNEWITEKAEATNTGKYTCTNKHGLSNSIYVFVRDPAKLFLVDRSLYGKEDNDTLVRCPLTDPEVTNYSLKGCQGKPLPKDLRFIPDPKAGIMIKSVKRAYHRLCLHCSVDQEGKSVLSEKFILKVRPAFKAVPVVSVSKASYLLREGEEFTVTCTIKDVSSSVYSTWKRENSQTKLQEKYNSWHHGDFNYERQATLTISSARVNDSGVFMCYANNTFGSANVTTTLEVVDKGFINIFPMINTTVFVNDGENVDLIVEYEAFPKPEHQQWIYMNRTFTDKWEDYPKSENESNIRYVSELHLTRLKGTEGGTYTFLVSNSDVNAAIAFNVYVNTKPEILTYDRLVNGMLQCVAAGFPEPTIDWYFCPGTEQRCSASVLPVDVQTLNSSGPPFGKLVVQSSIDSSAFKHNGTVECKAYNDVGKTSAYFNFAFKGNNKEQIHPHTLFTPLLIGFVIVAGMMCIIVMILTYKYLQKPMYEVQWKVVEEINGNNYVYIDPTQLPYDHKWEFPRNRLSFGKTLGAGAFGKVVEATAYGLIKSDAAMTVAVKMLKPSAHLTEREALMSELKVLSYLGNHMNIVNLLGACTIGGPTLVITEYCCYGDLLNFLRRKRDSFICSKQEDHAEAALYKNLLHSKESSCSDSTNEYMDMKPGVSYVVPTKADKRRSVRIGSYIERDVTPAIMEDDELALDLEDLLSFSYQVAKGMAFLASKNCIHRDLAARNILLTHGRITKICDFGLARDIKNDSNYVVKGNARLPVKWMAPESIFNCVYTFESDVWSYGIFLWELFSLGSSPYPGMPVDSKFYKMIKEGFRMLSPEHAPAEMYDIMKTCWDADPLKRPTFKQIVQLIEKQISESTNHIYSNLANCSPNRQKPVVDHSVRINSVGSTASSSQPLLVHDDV
Sequence of PDGFRα (P16234 24-1089): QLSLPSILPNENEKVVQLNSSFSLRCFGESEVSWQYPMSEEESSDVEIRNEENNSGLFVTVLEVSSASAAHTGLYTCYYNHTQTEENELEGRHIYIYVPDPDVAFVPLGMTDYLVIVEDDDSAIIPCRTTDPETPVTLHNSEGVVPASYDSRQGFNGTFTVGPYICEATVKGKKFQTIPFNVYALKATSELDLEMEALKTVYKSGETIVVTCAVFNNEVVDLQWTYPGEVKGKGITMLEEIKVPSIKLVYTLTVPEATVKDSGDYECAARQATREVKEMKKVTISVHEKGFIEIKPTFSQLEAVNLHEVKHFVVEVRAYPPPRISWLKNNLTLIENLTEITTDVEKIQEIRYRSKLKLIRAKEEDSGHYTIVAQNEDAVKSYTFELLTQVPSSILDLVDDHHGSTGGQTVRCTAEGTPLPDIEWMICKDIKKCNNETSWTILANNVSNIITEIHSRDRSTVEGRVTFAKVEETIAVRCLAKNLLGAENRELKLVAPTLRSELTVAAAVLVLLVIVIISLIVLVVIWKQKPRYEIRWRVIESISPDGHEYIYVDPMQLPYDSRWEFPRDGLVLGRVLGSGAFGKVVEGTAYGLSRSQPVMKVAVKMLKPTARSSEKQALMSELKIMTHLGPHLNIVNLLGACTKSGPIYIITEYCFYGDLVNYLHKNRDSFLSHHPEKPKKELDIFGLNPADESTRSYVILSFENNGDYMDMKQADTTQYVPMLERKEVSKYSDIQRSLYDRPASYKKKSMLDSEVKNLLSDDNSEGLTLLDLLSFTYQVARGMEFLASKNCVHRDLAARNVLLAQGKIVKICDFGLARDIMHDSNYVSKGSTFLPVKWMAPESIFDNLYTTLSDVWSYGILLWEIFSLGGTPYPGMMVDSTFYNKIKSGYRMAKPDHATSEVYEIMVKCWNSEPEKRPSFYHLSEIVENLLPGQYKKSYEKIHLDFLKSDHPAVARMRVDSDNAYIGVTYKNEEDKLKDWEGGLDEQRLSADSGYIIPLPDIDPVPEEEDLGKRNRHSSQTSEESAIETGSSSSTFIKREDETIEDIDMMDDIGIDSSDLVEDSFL

On to `COc1ccc(NC(=O)Nc2ccc(NC(=O)N3C=NC=C4NNC=C43)cc2)cc1` [4b-6, 1-(4-(1H-pyrazolopyrimidine-4-amido)phenyl)-3-(4-methoxyphenyl)urea], for which the inhibition at 10 µM on PDGFRα was above 30%; on VEGFR2 it was 95%; on c-KIT it was above 30%. Also, the IC50 was below 50 µM in test [1] (Homo sapiens, K562, 72 hours) and below 50 µM in test [2] (Homo sapiens, A875, 72 hours).
Consider `Cc1cc(C)c(NC(=O)Nc2ccc(NC(=O)N3C=NC=C4NNC=C43)cc2)c(C)c1` [4b-7, 1-(4-(1H-pyrazolopyrimidine-4-amido)phenyl)-3-(2,4,6-trimethylphenyl)urea], for which the values for the inhibition at 10 µM at PDGFRα, at VEGFR2 and on c-KIT were above 30%, 92% and above 30%, respectively. Besides, the IC50 was below 50 µM in test [1] (Homo sapiens, K562, 72 hours) and below 50 µM in test [2] (Homo sapiens, A875, 72 hours).
`CC(C)(C)c1cc(NC(=O)Nc2ccc(Sc3ncnc4[nH]ncc34)cc2)no1` [4c-3, 1-(4-(1H-pyrazolopyrimidine-4-sulfydryl)phenyl)-3-(5-tert-butylisoxazol-3-yl)urea]: the “Activity inhibition rate PDGFRα (h)” value on PDGFRα is on record as above 50%. Further, the IC50 in test [1] (72 hours) and in test [2] (72 hours) was below 50 µM in each case. At VEGFR2, the “Activity inhibition rate VEGFR2 (h)” value came out at 100%. Besides, the “Activity inhibition rate c-Kit (h)” value at c-KIT was above 90%.
Turning to `CC(C)n1ncc2c(Oc3ccc(NC(=O)Nc4cc(C(C)(C)C)on4)cc3)ncnc21` [5a-4, 1-(5-tert-butylisoxazol-3-yl)-3-(4-(1-isopropyl-(1H-pyrazolopyrimidine-4-yl)oxy)phenyl)urea], the inhibition at 10 µM is above 30% on PDGFRα, above 90% at VEGFR2 and above 30% at c-KIT. Also, the IC50 in test [1] (Homo sapiens, K562, 72 hours) is below 50 µM; in test [2] (Homo sapiens, A875, 72 hours), below 50 µM.
